Results taken from publication PMC12508057, “Discovery of ETI41 and ETI60: novel selective endosomal Toll-like receptor inhibitors for the treatment of autoimmune diseases” (Experimental & Molecular Medicine, 2025).

Tests used:
[1] = tested on: Daudi cells; assay: Water-soluble tetrazolium assay, cell viability in Daudi; format: cell-based
Experimental: Daudi cells were seeded into 96-well plates at a density of 5 × 10^4 cells per well.
One-tailed paired Student’s t-tests were performed using Microsoft Excel (Microsoft). […] The therapeutic index was calculated as […]. Animal experimental results are expressed as mean ± standard deviation and analyzed using SPSS v.20 (IBM SPSS Statistics). Homogeneity of variance was assessed using Levene’s test.
Data are from at least three independent experiments (n = 3) and statistical differences between the induced case and other cases were analyzed and verified using a one-tailed Student’s t-test (*P < 0.05, **P < 0.01, ***P < 0.001).

[2] = tested on: SLE in MRL/lpr mice; assay: MRL/lpr mouse model of SLE; format: in vivo; conditions: 30 mg/kg oral daily for 39 days; for Anti-dsDNA antibodies / Antinuclear antibody (ANA) / IgG in the kidney: compared with HCQ 60 mg/kg; for Alopecia and skin rashes: compared with vehicle and HCQ
Experimental: MRL/MpJ-Fas^lpr/J lupus-prone mice were purchased from Jackson Laboratory to evaluate the effects of ETI41 and ETI60 on the pathophysiology of genetic SLE. This study was approved by the IACUC, Ajou University (approval no. 2019-0046). Fourteen-week-old mice were assigned to the following treatment groups: vehicle (n = 3), ETI60 (n = 3), ETI41 (n = 4) and HCQ (n = 3). These groups were administered daily oral doses of 30 mg/kg ETI41 or ETI60, or 60 mg/kg HCQ for 39 days. All compounds were dissolved in a vehicle comprising ethanol, polyethylene glycol (PEG400) and distilled water at a 1:4:5 ratio. The body weights of the mice were measured every 3 days. Mice were anesthetized in an induction chamber with a gas mixture of 4% isoflurane in 70:30 […] and O2, delivered at a flow rate of 0.8 l/min. Upon completion of the treatment period, paired axillary and popliteal lymph nodes were collected and weighed. Blood samples were taken and maintained in BD Microtainer SST tubes (BD Biosciences), with serum isolated through centrifugation at 3,393g for 30 min at 4 °C. Serum markers, including complement component C3, ANA, anti-dsDNA and total IgG, were evaluated using ELISA kits (MyBioSource). Renal IgG levels were monitored by western blotting using anti-mouse IgG (Thermo Fisher Scientific) and β-actin antibodies (Bethyl Laboratories). Statistical significance among groups was analyzed using IBM SPSS Statistics (v.25.0; IBM Corporation), with statistical significance set at P < 0.05.
Fig. 5 Therapeutic efficacy of ETI41 and ETI60 in SLE mouse model. a Summary of the experimental validation of ETI41 and ETI60 in the MRL/lpr female mouse model of SLE. […] Statistical differences between the induced case and other cases were analyzed and verified using a one-tailed Student’s t-test (*P < 0.05, **P < 0.01, ***P < 0.001).

[3] = tested on: endosomal TLRs; assay: Endosomal TLR-mediated TNF-α production, summary over cell lines; format: cell-based; conditions: dose-dependent, without inducing cytotoxic effects
Experimental: RAW 264.7 and differentiated THP-1 cells were seeded into 96-well plates at 2 × 10^4 cells per well, while Daudi cells were seeded at 5 × 10^4 cells per well. After stabilization for 30 min, cells were stimulated with specific TLR agonists for 4 or 24 h. Supernatants were diluted and transferred to precoated ELISA plates to measure TNF-α secretion using kits from Invitrogen. Optical absorbance was measured using a BioTek Synergy HTX multimode microplate reader, and data were interpolated using BioTek Gen5 software.
TLR activation triggers the NF-κB pathway, resulting in increased production of pro-inflammatory cytokines, such as TNF-α and IL-6.

SMILES | Cell viability (LD50), cytotoxicity [1] | Body weight [2] | Lymph node weights [2] | Anti-dsDNA antibodies [2] | Antinuclear antibody (ANA) [2] | IgG in the kidney [2] | Alopecia and skin rashes [2] | TNF-α production by RAW 264.7 and Daudi cells [3] | Complement C3 levels ([2]; serum)
Cc1cc2c(N)c3c(nc2n1CCCN(C)C)CCCCCC3 [ETI41] | >200,000 nM | prevented weight gain or loss | notably lower | reduced | reduced | reduced | substantially reduced | effectively inhibited | –
COc1ccc2c3c(N)c4c(nc3n(CCCN(C)C)c2c1)CCCC4 [ETI60] | 38,410 nM | prevented weight gain or loss | notably lower | reduced | reduced | reduced | substantially reduced | effectively inhibited | increased
